Source: US4883807A, “1,2,5,6-tetrahydropyridyl triazoles and tetrazoles useful as fungicides” (Imperial Chemical Industries PLC, priority 1986, dated 1989)

Legend:
Venturia inaequalis = assay: foliar fungal disease control on plants, Venturia inaequalis on apple; type: in vivo; conditions: 100 ppm foliar spray plus root drench ca. 40 ppm a.i./dry soil, one or two days before inoculation
Procedure: (§1) The technique employed was as follows.
(§2) The plants were grown in John Innes Potting Compost (No. 1 or 2) in 4 cm diameter minipots. The test compounds were formulated either by bead milling with aqueous Dispersol T or as a solution in acetone or acetone/ethanol which was diluted to the required concentration immediately before use. For the foliage diseases, the formulations (100 ppm active ingredient) were sprayed on to the foliage and applied to the roots of the plants in the soil. The sprays were applied to maximum retention and the root drenches to a final concentration equivalent to approximately 40 ppm a.i./dry soil. Tween 20, to give a final concentration of 0.05%, was added when the sprays were applied to cereals.
(§3) For most of the tests the compound was applied to the soil (roots) and to the foliage (by spraying) one or two days before the plant was inoculated with the disease. An exception was the test on Erysiphe graminis in which the plants were inoculated 24 hours before treatment. Foliar pathogens were applied by spray as spore suspensions onto the leaves of test plants. After inoculation, the plants were put into an appropriate environment to allow infection to proceed and then incubated until the disease was ready for assessment. The period between inoculation and assessment varied from four to fourteen days according to the disease and environment.
(§4) The disease control was recorded by the following grading: […]

Blattella germanica = assay: whole plant or invertebrate; conditions: 72 h, read-out: grading of mortality, BG
Diabrotica balteata = assay: whole plant or invertebrate; conditions: in Zea mays, 72 h, read-out: grading of mortality, DB
[1] = system: Tetranyhus urticae (spider mites - ova); assay: whole plant or invertebrate; conditions: 144 h, read-out: grading of mortality, TUe
Meloidogyne incognita = assay: nematode test, tomato root knot eelworm - larvae, semi in-vitro; type: in vivo; conditions: 250 ppm, residual, 7 days
Procedure: (§5) The activity of the compounds was determined using a variety of insect, mite and nematode pests. The compounds were used in the form of liquid preparations containing 500 parts per million (ppm) by weight of the compound except for the test on Meloidogyne incognita when liquid preparations of 250 ppm by weight were used. The preparations were made by dissolving the compounds in acetone and diluting the solutions with water containing 0.1% by weight of a wetting agent sold under the trade name "SYNPERONIC" NX until the liquid preparations contained the required concentration of the product. "SYNPERONIC" is a Registered Trade Mark.
(§6) The test procedure adopted with regard to each pest was basically the same and comprised supporting a number of the pests on a medium which was usually a host plant or a foodstuff on which the pests feed, and treating either or both the pests and the medium with the preparations. The mortality of the pests was then assessed at periods usually varying from one to seven days after the treatment.
(§7) The results of the tests are given in Table IX for each of the products as a grading of mortality designated as 9, 5 or 0 where 9 indicates 80-100% mortality (70-100% root-knot reduction as compared with untreated plants for Meloidogyne incognita), 5 indicates 50-79% mortality (50-69% root knot reduction for Meloidogyne incognita) and 0 indicates less than 50% mortality (root-knot reduction for Meloidogyne incognita).
(§8) In Table IX the pest organism used in designated by a letter code and the pests species, the support medium or food, and the type and duration of test is given in Table VII.

Plasmopara viticola = assay: foliar fungal disease control on plants, Plasmopara viticola on vine; type: in vivo; conditions: 100 ppm foliar spray plus root drench ca. 40 ppm a.i./dry soil, one or two days before inoculation
Procedure: as §1, §2, §3, §4

Myzus persicae = assay: whole plant or invertebrate; conditions: in Brassica rapa, 72 h, read-out: grading of mortality, MP
Heliothis virescens = assay: insecticidal test, tobacco budworm - larvae; type: in vivo; conditions: in Gossypium hirsutum, 72 h, read-out: grading of mortality, HV
Procedure: as §5, §6, §7, §8

Erysiphe graminis = assay: foliar fungal disease control on plants, Erysiphe graminis on barley; type: in vivo; conditions: 100 ppm foliar spray plus root drench ca. 40 ppm a.i./dry soil; inoculated 24 hours before treatment
Procedure: as §1, §2, §3, §4

Puccinia recondita = assay: foliar fungal disease control on plants, Puccinia recondita on wheat; type: in vivo; conditions: 100 ppm foliar spray plus root drench ca. 40 ppm a.i./dry soil, one or two days before inoculation
Procedure: as §1, §2, §3, §4

Nephotettix cincticeps = assay: whole plant or invertebrate; conditions: in Oryza sativa, 72 h, read-out: grading of mortality, NC
Cercospora arachidicola = assay: foliar fungal disease control on plants, Cercospora arachidicola on peanut; type: in vivo; conditions: 100 ppm foliar spray plus root drench ca. 40 ppm a.i./dry soil, one or two days before inoculation
Procedure: as §1, §2, §3, §4

[2] = system: Tetranychus urticae (spider mites - adult); assay: whole plant or invertebrate; conditions: in Phaseolus vulgaris, 72 h, read-out: grading of mortality, TUa
Musca domestica [3] = assay: whole plant or invertebrate; conditions: 24 h, read-out: grading of mortality, MD
Pyricularia oryzae = type: in vivo; conditions: 100 ppm foliar spray plus root drench ca. 40 ppm a.i./dry soil, one or two days before inoculation
Phytophthora infestans = type: in vivo; conditions: 100 ppm foliar spray plus root drench ca. 40 ppm a.i./dry soil, one or two days before inoculation
Nilaparvata lugens = assay: whole plant or invertebrate; conditions: in Oryza sativa, 72 h, read-out: grading of mortality, NL
Spodoptera exigua = assay: whole plant or invertebrate; conditions: in Gossypium hirsutum, 72 h, read-out: grading of mortality, SP
Musca domestica [4] = assay: knockdown properties against houseflies; type: in vivo; conditions: 2000 ppm solution (1 ml) sprayed directly
Procedure: A sample of compound 3 was diluted in 2 mls acetone and made upto a 2000 ppm solution with 0.1% aqueous synperonic solution. The solution (1 ml) was then sprayed directly onto twenty mixed sex houseflies held in a drinking cup. Immediately after spraying the cups were inverted and left to dry. An assessment of knockdown was made when the cups were righted 15 minutes later. The flies were then provided with a 10% sucrose solution on a cotton wool pad, and held for 48 hours in a holding room conditioned at 25° C. and 65% relative humidity before a mortality assessment was made.

Row | Structure (SMILES) | disease control grading, VENTURIA INAEQUALIS (Apple) (Venturia inaequalis) | mortality at 500 ppm (Blattella germanica) | mortality at 500 ppm (Diabrotica balteata) | mortality at 500 ppm [1] | grading of root-knot reduction, MI (Meloidogyne incognita) | disease control grading, […] (Vine) (Plasmopara viticola) | mortality at 500 ppm (Myzus persicae) | mortality at 500 ppm (Heliothis virescens) | disease control grading, ERYSIPHE GRAMINIS (Barley) (Erysiphe graminis) | disease control grading, PUCCINIA RECONDITA (Wheat) (Puccinia recondita) | mortality at 500 ppm (Nephotettix cincticeps) | disease control grading, CERCOSPCRA ARACHIDICOLA (Peanut) (Cercospora arachidicola) | mortality at 500 ppm [2] | mortality at 500 ppm (Musca domestica [3]) | disease control grading, P[…] (Rice) (Pyricularia oryzae) | disease control grading, PH[…] (TOMATOES) (Phytophthora infestans) | mortality at 500 ppm (Nilaparvata lugens) | mortality at 500 ppm (Spodoptera exigua) | knockdown (Musca domestica [4]; 15 minutes) | kill (Musca domestica [4]; 48 hours, 25° C., 65% relative humidity)
1 | CO/C=C(/C(=O)OC)n1cccc1/C=C/C(=O)OC | 4 | 80 to 100% | < 50% | < 50% | 0 (less than 50% mortality (root-knot reduction for Meloidogyne incognita)) | 4 | < 50% | < 50% | 4 | 4 | 50 to 79% | 2 (6-25% of disease on untreated plants) | 80 to 100% | < 50% | 4 | 4 |  |  |  | 
2 | CCOC(=O)/C=C/c1cccn1/C(=C\OC)C(=O)OC [(Z)-methyl 3-methoxy-2-[2-(E-2-carbethoxyethenyl)pyrrol-1-yl]acrylate] | 4 |  |  |  |  | 4 |  |  | 0 (60-100% of disease on untreated plants) | 4 |  | 4 |  |  | 4 | 4 |  |  |  | 
3 | CO/C=C(/C(=O)OC)n1cccc1/C=N/OC [Compound 1 of Table I] | 4 |  |  |  |  | 4 |  |  | 4 | 4 |  | 4 |  |  | 4 | 3 (trace - 5% of disease on untreated plants) |  |  |  | 
4 | CO/C=C(/C(=O)OC)n1cccc1/C=N\OC [Compound 2 of Table I] | 4 | < 50% | 50 to 79% | < 50% | 0 (less than 50% mortality (root-knot reduction for Meloidogyne incognita)) | 4 | 80 to 100% | < 50% | 4 | 4 |  | 4 | 80 to 100% | < 50% | 3 (trace - 5% of disease on untreated plants) | 0 (60-100% of disease on untreated plants) | < 50% | < 50% |  | 
5 | C=CCO/N=C/c1cccn1/C(=C\OC)C(=O)OC [Compound 3 of Table I] | 4 | 80 to 100% | 80 to 100% | < 50% | 5 (50-69% root knot reduction for Meloidogyne incognita) | 4 | < 50% | < 50% | 4 | 4 |  | 4 | 80 to 100% | 80 to 100% |  | 0 (60-100% of disease on untreated plants) | 80 to 100% | < 50% | 90% | 93%
6 | C=CCO/N=C\c1cccn1/C(=C\OC)C(=O)OC [Compound 4 of Table I] | 4 |  |  |  |  | 4 |  |  | 4 | 4 |  | 4 |  |  | 4 | 4 |  |  |  | 
7 | CO/C=C(/C(=O)OC)n1cccc1CN1CCOCC1 [Compound 5 of Table II] | 4 |  |  |  |  | 0 (60-100% of disease on untreated plants) |  |  | 2 (6-25% of disease on untreated plants) | 2 (6-25% of disease on untreated plants) |  | 4 |  |  | 0 (60-100% of disease on untreated plants) | 0 (60-100% of disease on untreated plants) |  |  |  | 
8 | CO/C=C(/C(=O)OC)n1cccc1/C=N/OCc1ccccc1 [Compound 5 of Table I] | 4 |  |  |  |  | 4 |  |  | 3 (trace - 5% of disease on untreated plants) | 3 (trace - 5% of disease on untreated plants) |  | 3 (trace - 5% of disease on untreated plants) |  |  | 4 | 0 (60-100% of disease on untreated plants) |  |  |  | 
9 | C#CCO/N=C/c1cccn1/C(=C\OC)C(=O)OC [Compound 7 of Table I] | 4 | 50 to 79% | 80 to 100% | < 50% | 0 (less than 50% mortality (root-knot reduction for Meloidogyne incognita)) | 4 | < 50% |  | 4 | 4 |  | 4 | 80 to 100% | < 50% | 4 | 3 (trace - 5% of disease on untreated plants) | < 50% |  |  | 
10 | CCOC(=O)/C(C#N)=C/c1cccn1/C(=C\OC)C(=O)OC [Compound 19 of Table I] | 0 (60-100% of disease on untreated plants) |  |  |  |  | 4 |  |  | 0 (60-100% of disease on untreated plants) | 4 |  | 3 (trace - 5% of disease on untreated plants) |  |  | 0 (60-100% of disease on untreated plants) | 0 (60-100% of disease on untreated plants) |  |  |  | 
